Assay results taken from PMC6385203, “Mutations in the palm domain disrupt modulation of acid-sensing ion channel 1a currents by neuropeptides” (Scientific Reports, 2019).
Substitutions are numbered along the chain they refer to. Peptide text beside a SMILES is read from it.

Key:
[1] = target: T1, WT ASIC1a (Homo sapiens, UniProt P78348); experiment: Time course of appearance of Isust (association), WT; format: cell-based; conditions: pH 7.4, 50 μM FRRFa pre-applied for different times at pH7.4, n = 4, mean ± SEM, read-out: association rate constant kon
T1 construct: expressed in transfected cells; host or cells: Xenopus laevis oocytes injected with cRNA
T1 sequence (P78348 1-528): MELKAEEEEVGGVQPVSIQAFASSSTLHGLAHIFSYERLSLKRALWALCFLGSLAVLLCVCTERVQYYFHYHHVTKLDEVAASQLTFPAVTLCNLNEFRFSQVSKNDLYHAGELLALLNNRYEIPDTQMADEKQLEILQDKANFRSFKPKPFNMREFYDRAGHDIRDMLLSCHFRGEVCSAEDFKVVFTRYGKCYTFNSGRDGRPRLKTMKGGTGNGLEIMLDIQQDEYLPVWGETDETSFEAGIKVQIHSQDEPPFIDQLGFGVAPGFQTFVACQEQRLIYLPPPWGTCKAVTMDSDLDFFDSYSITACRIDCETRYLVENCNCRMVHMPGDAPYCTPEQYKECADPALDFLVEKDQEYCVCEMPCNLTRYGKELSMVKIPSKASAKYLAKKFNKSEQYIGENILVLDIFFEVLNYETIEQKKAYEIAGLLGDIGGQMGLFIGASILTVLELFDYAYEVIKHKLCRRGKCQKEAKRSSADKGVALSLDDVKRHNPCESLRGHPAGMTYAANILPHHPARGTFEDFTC
Procedure: (§1) ASIC1a function was measured by two-electrode voltage-clamp after recombinant expression in Xenopus oocytes. The channels were activated by a pH5 stimulation solution from a conditioning solution of pH7.4. […] We measured the rate of FRRFa unbinding, as the disappearance of the sustained current after a 50-s incubation with 50 μM FRRFa, as 0.025 ± 0.005 s^−1 (n = 8, Fig. 2b). […] To determine the kinetics of FRRFa association on ASIC1a, we pre-applied the peptide at a concentration of 50 μM for different time periods in the conditioning solution and measured the sustained current fraction.
(§2) Figure 2 FRRFa modulation of ASIC1a currents is only partially affected by acidic pocket mutations. (a) FRRFa concentration-response curve. Top, representative current traces. Bottom, Isust/Ipeak ratio induced by pH5 as a function of the FRRFa concentration (pre-applied during 45–50 s and present in pH5 solution), n = 7–11. (b) Time course of disappearance of the FRRFa-induced Isust. FRRFa at 50 μM was applied for 45 s, and current was measured once every minute during washout with FRRFa-free solution. Exponential fit shown as solid line (n = 4, error bars are smaller than the symbols). (c) Time course of appearance of Isust. Oocytes were exposed for various durations to 50 μM FRRFa in the pH7.4 conditioning solution, before activation of ASIC currents with pH5, including 50 μM FRRFa. […]

[2] = target: T2, WT ASIC1a (Homo sapiens, UniProt P78348); experiment: Disappearance of FRRFa-induced Isust on washout, WT; format: cell-based; conditions: WT in direct comparison with N416C; washout after 50 μM FRRFa 45 s; n = 4
T2 construct: expressed in transfected cells; host or cells: Xenopus laevis oocytes injected with cRNA
T2 sequence (P78348 1-528 G212D): T1 sequence (P78348 1-528) with G212D
Procedure: as §1, §2

SMILES: N=C(N)NCCC[C@H](NC(=O)[C@H](CCCNC(=N)N)NC(=O)[C@@H](N)Cc1ccccc1)C(=O)N[C@@H](Cc1ccccc1)C(N)=O [FRRFa, Phe-Arg-Arg-Phe-amide] (H-FRRF-NH2)
- kon [1]: 162 ± 84 M⁻¹ s⁻¹
- koff [2]: 0.029 ± 0.011 s⁻¹
